Results taken from ChEMBL document CHEMBL1806455, “Synthesis, activity and pharmacokinetics of novel antibacterial 15-membered ring macrolones” (Eur J Med Chem, 2011).
In brackets after ≈: the same amount, converted by molar mass.

Columns and labels:
Assay type in all cases: functional
Staphylococcus aureus [1] = test: Antibacterial activity against erythromycin-sensitive Staphylococcus aureus ATCC 13709 by broth microdilution method
Streptococcus pneumoniae [2] = test: Antibacterial activity against erythromycin-sensitive Streptococcus pneumoniae SP030 by broth microdilution method
Streptococcus pyogenes [3] = test: Antibacterial activity against erythromycin-sensitive Streptococcus pyogenes 3565 by broth microdilution method
Staphylococcus aureus [4] = test: Antibacterial activity against efflux-mediated macrolide-resistant Staphylococcus aureus PK1 by broth microdilution method
Streptococcus pneumoniae [5] = test: Antibacterial activity against efflux-mediated macrolide-resistant Streptococcus pneumoniae Ci137 by broth microdilution method
Streptococcus pyogenes [6] = test: Antibacterial activity against efflux-mediated macrolide-resistance Streptococcus pyogenes 2 Finland by broth microdilution method
Staphylococcus aureus [7] = test: Antibacterial activity against inducible macrolide-lincosamide-streptogramin B resistant Staphylococcus aureus 90256 by broth microdilution method
Streptococcus pneumoniae [8] = test: Antibacterial activity against inducible macrolide-resistant, constitutive lincosamide, streptogramin-resistant Streptococcus pneumoniae 134 GR M by broth microdilution method
Streptococcus pyogenes [9] = test: Antibacterial activity against inducible macrolide-lincosamide-streptogramin B resistant Streptococcus pyogenes Finland 11 by broth microdilution method
Staphylococcus aureus [10] = test: Antibacterial activity against constitutive macrolide, lincosamide, streptogramin-resistant Staphylococcus aureus PK2 by broth microdilution method
Streptococcus pneumoniae [11] = test: Antibacterial activity against constitutive macrolide, lincosamide, streptogramin-resistant Streptococcus pneumoniae 58 spain by broth microdilution method
Streptococcus pyogenes [12] = test: Antibacterial activity against macrolide, lincosamide, streptogramin-resistant Streptococcus pyogenes 166 GR-Micro by broth microdilution method
Haemophilus influenzae = test: Antibacterial activity against Haemophilus influenzae ATCC 49247 by broth microdilution method
Moraxella catarrhalis = test: Antibacterial activity against Moraxella catarrhalis ATCC 23246 by broth microdilution method

Structure (SMILES) | MIC (Staphylococcus aureus [1]) | MIC (Streptococcus pneumoniae [2]) | MIC (Streptococcus pyogenes [3]) | MIC (Staphylococcus aureus [4]) | MIC (Streptococcus pneumoniae [5]) | MIC (Streptococcus pyogenes [6]) | MIC (Staphylococcus aureus [7]) | MIC (Streptococcus pneumoniae [8]) | MIC (Streptococcus pyogenes [9]) | MIC (Staphylococcus aureus [10]) | MIC (Streptococcus pneumoniae [11]) | MIC (Streptococcus pyogenes [12]) | MIC (Haemophilus influenzae) | MIC (Moraxella catarrhalis)
CC[C@H]1OC(=O)[C@H](C)[C@@H](O[C@H]2C[C@@](C)(OC)[C@@H](OC(=O)CCOCCNc3ccc4c(c3)c(=O)c(C(=O)OC(C)C)cn4C3CC3)[C@H](C)O2)[C@H](C)[C@@H](O[C@@H]2O[C@H](C)C[C@H](N(C)C)[C@H]2O)[C@](C)(O)C[C@@H](C)CN(C)[C@H](C)[C@@H](O)[C@]1(C)O | 0.5 µg/mL (≈ 0.441 µM) | ≤ 0.125 µg/mL | ≤ 0.125 µg/mL | 8 µg/mL (≈ 7.06 µM) | ≤ 0.125 µg/mL | ≤ 0.125 µg/mL | 16 µg/mL (≈ 14.1 µM) | ≤ 0.125 µg/mL | ≤ 0.125 µg/mL | > 64 µg/mL | ≤ 0.125 µg/mL | ≤ 0.125 µg/mL | 4 µg/mL (≈ 3.53 µM) | 4 µg/mL (≈ 3.53 µM)
CCC(=O)CNC(=O)COC(=O)c1cn(C2CC2)c2ccc(NCCOCCC(=O)O[C@H]3[C@H](C)O[C@@H](O[C@H]4[C@H](C)[C@@H](O[C@@H]5O[C@H](C)C[C@H](N(C)C)[C@H]5O)[C@](C)(O)C[C@@H](C)CN(C)[C@H](C)[C@@H](O)[C@](C)(O)[C@@H](CC)OC(=O)[C@@H]4C)C[C@@]3(C)OC)cc2c1=O | 1 µg/mL (≈ 0.821 µM) | ≤ 0.125 µg/mL | ≤ 0.125 µg/mL | 8 µg/mL (≈ 6.57 µM) | ≤ 0.125 µg/mL | ≤ 0.125 µg/mL | 16 µg/mL (≈ 13.1 µM) | ≤ 0.125 µg/mL | ≤ 0.125 µg/mL | > 64 µg/mL | ≤ 0.125 µg/mL | ≤ 0.125 µg/mL | 4 µg/mL (≈ 3.28 µM) | –
CC[C@H]1OC(=O)[C@H](C)[C@@H](O[C@H]2C[C@@](C)(OC)[C@@H](OC(=O)CCOCCNc3ccc4c(c3)c(=O)c(C(=O)OCCN3CCCCC3)cn4C3CC3)[C@H](C)O2)[C@H](C)[C@@H](O[C@@H]2O[C@H](C)C[C@H](N(C)C)[C@H]2O)[C@](C)(O)C[C@@H](C)CN(C)[C@H](C)[C@@H](O)[C@]1(C)O | 0.25 µg/mL (≈ 0.208 µM) | ≤ 0.125 µg/mL | ≤ 0.125 µg/mL | 1 µg/mL (≈ 0.832 µM) | ≤ 0.125 µg/mL | ≤ 0.125 µg/mL | 4 µg/mL (≈ 3.33 µM) | ≤ 0.125 µg/mL | ≤ 0.125 µg/mL | > 64 µg/mL | ≤ 0.125 µg/mL | ≤ 0.125 µg/mL | 8 µg/mL (≈ 6.65 µM) | 1 µg/mL (≈ 0.832 µM)
CC[C@H]1OC(=O)[C@H](C)[C@@H](O[C@H]2C[C@@](C)(OC)[C@@H](OC(=O)CCOCCOc3cc4c(=O)c(C(=O)OC(C)C)cn(C5CC5)c4cc3Cl)[C@H](C)O2)[C@H](C)[C@@H](O[C@@H]2O[C@H](C)C[C@H](N(C)C)[C@H]2O)[C@](C)(O)C[C@@H](C)CN(C)[C@H](C)[C@@H](O)[C@]1(C)O | 1 µg/mL (≈ 0.856 µM) | ≤ 0.125 µg/mL | ≤ 0.125 µg/mL | 4 µg/mL (≈ 3.42 µM) | ≤ 0.125 µg/mL | ≤ 0.125 µg/mL | 4 µg/mL (≈ 3.42 µM) | 0.5 µg/mL (≈ 0.428 µM) | ≤ 0.125 µg/mL | > 64 µg/mL | 0.25 µg/mL (≈ 0.214 µM) | 0.5 µg/mL (≈ 0.428 µM) | 2 µg/mL (≈ 1.71 µM) | 0.5 µg/mL (≈ 0.428 µM)
CC[C@H]1OC(=O)[C@H](C)[C@@H](O[C@H]2C[C@@](C)(OC)[C@@H](OC(=O)CCOCCOc3cc4c(=O)c(C(=O)OCOC(=O)C(C)(C)C)cn(C5CC5)c4cc3Cl)[C@H](C)O2)[C@H](C)[C@@H](O[C@@H]2O[C@H](C)C[C@H](N(C)C)[C@H]2O)[C@](C)(O)C[C@@H](C)CN(C)[C@H](C)[C@@H](O)[C@]1(C)O | 1 µg/mL (≈ 0.806 µM) | ≤ 0.125 µg/mL | ≤ 0.125 µg/mL | 2 µg/mL (≈ 1.61 µM) | ≤ 0.125 µg/mL | ≤ 0.125 µg/mL | 4 µg/mL (≈ 3.22 µM) | 0.25 µg/mL (≈ 0.201 µM) | ≤ 0.125 µg/mL | > 64 µg/mL | ≤ 0.125 µg/mL | ≤ 0.125 µg/mL | 4 µg/mL (≈ 3.22 µM) | 4 µg/mL (≈ 3.22 µM)
CC[C@H]1OC(=O)[C@H](C)[C@@H](O[C@H]2C[C@@](C)(OC)[C@@H](OC(=O)CCOCCOc3ccc4c(c3)c(=O)c(C(=O)OC(C)C)cn4C3CC3)[C@H](C)O2)[C@H](C)[C@@H](O[C@@H]2O[C@H](C)C[C@H](N(C)C)[C@H]2O)[C@](C)(O)C[C@@H](C)CN(C)[C@H](C)[C@@H](O)[C@]1(C)O | 1 µg/mL (≈ 0.882 µM) | ≤ 0.125 µg/mL | ≤ 0.125 µg/mL | 16 µg/mL (≈ 14.1 µM) | ≤ 0.125 µg/mL | ≤ 0.125 µg/mL | 32 µg/mL (≈ 28.2 µM) | ≤ 0.125 µg/mL | ≤ 0.125 µg/mL | > 64 µg/mL | ≤ 0.125 µg/mL | ≤ 0.125 µg/mL | 4 µg/mL (≈ 3.53 µM) | 2 µg/mL (≈ 1.76 µM)
CC[C@H]1OC(=O)[C@H](C)[C@@H](O[C@H]2C[C@@](C)(OC)[C@@H](OC(=O)CCOCCOc3ccc4c(c3)c(=O)c(C(=O)OCC(C)=O)cn4C3CC3)[C@H](C)O2)[C@H](C)[C@@H](O[C@@H]2O[C@H](C)C[C@H](N(C)C)[C@H]2O)[C@](C)(O)C[C@@H](C)CN(C)[C@H](C)[C@@H](O)[C@]1(C)O | 0.5 µg/mL (≈ 0.435 µM) | ≤ 0.125 µg/mL | ≤ 0.125 µg/mL | 1 µg/mL (≈ 0.871 µM) | 0.25 µg/mL (≈ 0.218 µM) | ≤ 0.125 µg/mL | 2 µg/mL (≈ 1.74 µM) | 0.25 µg/mL (≈ 0.218 µM) | ≤ 0.125 µg/mL | 64 µg/mL (≈ 55.7 µM) | 0.5 µg/mL (≈ 0.435 µM) | ≤ 0.125 µg/mL | 2 µg/mL (≈ 1.74 µM) | 1 µg/mL (≈ 0.871 µM)
